By IC50 is commonly meant the concentration at which inhibition is half-maximal.

Assay [1] deals with immunoproteasome LMP7/B5i subunit (Homo sapiens, UniProt P20618+P28062). The assay is described as follows: Caliper-based proteasome enzymatic activity assay, LMP7. In kind it is biochemical. The conditions noted are these: human recombinant immunoproteasome 0.3 nM, FAM-peptide substrate 1 μM, 3 h at rt. The method, then:
(§1) A Caliper-based proteasome assay (Caliper Life Sciences, Hopkinton, Mass.) was used to measure inhibition of the immunoproteasome LMP7/B5i subunit, the immunoproteasome LPM2/β1i subunit, and the constitutive proteasome β5c unit for a compound of Formula (I). For LMP7 and β5c, serial dilutions of test compounds were incubated with either human recombinant immunoprotcasome or constitutive proteasome (0.3 nM enzyme) and a carboxyfluorescein (FAM)-labeled peptide substrate FAM-TYETFKSIMKKSPF-NH2 (1 μM) at it for 3 h. The reaction was then terminated with a buffer containing the known proteasome inhibitor carfilzomib at a concentration of 5 uM. For LMP2, serial dilutions of test compounds were incubated with human recombinant immunoproteasome proteasome (0.3 nM enzyme) and a carboxyfluorescein (FAM)-labeled peptide substrate FAM-[…]-NH2 (1 μM) at rt for 2 h. The reaction was then terminated with a buffer containing the known proteasome inhibitor ixazomib at a concentration of 6.7 uM. The reaction buffer was 20 mM Hepes pH 7.4, 0.01% bovine serum albumin, 0.015% SDS, 0.5 mM EDTA, 1%0/DMSO. The peptide cleavage reaction product was quantified on a Caliper LabChip 3000. Percent inhibition was calculated for each compound dilution and the concentration that produced 50% inhibition was calculated. This value is presented as the IC50.

Assay [2] deals with constitutive proteasome β5c unit (Homo sapiens, UniProt P20618+P28074). Nature of the assay: Caliper-based proteasome enzymatic activity assay, β5c. It counts as biochemical. The following applies: human recombinant constitutive proteasome 0.3 nM, FAM-peptide substrate 1 μM, 3 h at rt; read-out: β5c subunit IC50. As for the experimental part:
as §1

`CC(C)(C=C(C#N)C(=O)N1CCC[C@@H]1COC(=O)N[C@@H](Cc1coc2ccccc12)B(O)O)N1CCC(F)(F)C1` [Example 42, ((R)-2-(benzofuran-3-yl)-1-(((((R)-1-(2-cyano-4-(3,3-difluoropyrrolidin-1-yl)-4-methylpent-2-enoyl)pyrrolidin-2-yl)methoxy)carbonyl)amino)ethyl)boronic acid]: the IC50 was determined as 0.5 nM in assay [1] and 141 nM in assay [2].

For the molecule `CC(C)(C)C=C(C#N)C(=O)N1CCOC[C@@H]1COC(=O)N[C@@H](Cc1coc2ccccc12)B(O)O` [Example 43, ((R)-2-(benzofuran-3-yl)-1-(((((R)-4-(2-cyano-4,4-dimethylpent-2-enoyl)morpholin-3-yl)methoxy)carbonyl)amino)ethyl)boronic acid], the IC50 in assay [1] amounted to 2 nM; in assay [2], 34 nM.

`CC(C)(C=C(C#N)C(=O)N1CCC[C@@H]1COC(=O)N[C@@H](Cc1coc2ccccc12)B(O)O)N1CCN(C2COC2)CC1` [Example 44, ((R)-2-(benzofuran-3-yl)-1-(((((R)-1-(2-cyano-4-methyl-4-(4-(oxetan-3-yl)piperazin-1-yl)pent-2-enoyl)pyrrolidin-2-yl)methoxy)carbonyl)amino)ethyl)boronic acid]: the IC50 in assay [1] is 2.3 nM; in assay [2], 396 nM.

Turning to `Cc1ccc(C[C@H](NC(=O)OC[C@H]2CCCCN2C(=O)C(C#N)=CC(C)(C)N2CCOCC2)B(O)O)cc1` [Example 45, ((R)-1-(((((R)-1-(2-cyano-4-methyl-4-morpholinopent-2-enoyl)piperidin-2-yl)methoxy)carbonyl)amino)-2-(p-tolyl)ethyl)boronic acid], the 50% inhibitory concentration (IC50) in assay [1] stood at 4 nM; in assay [2], 854 nM.

In the case of `CC(C)(C=C(C#N)C(=O)N1CCCC[C@@H]1COC(=O)N[C@@H](Cc1coc2ccccc12)B(O)O)N1CCOCC1` [Example 46, ((R)-2-(benzofuran-3-yl)-1-(((((R)-1-(2-cyano-4-methyl-4-morpholinopent-2-enoyl)piperidin-2-yl)methoxy)carbonyl)amino)ethyl)boronic acid], the values for the half-maximal inhibitory concentration (IC50) in assay [1] and in assay [2] were 1 nM and 187 nM, respectively.

For `CC(C)(C=C(C#N)C(=O)N1CCCC[C@@H]1COC(=O)N[C@@H](Cc1coc2ccccc12)B(O)O)N1CCC(F)(F)C1` [Example 47], the half-maximal inhibitory concentration (IC50) in assay [1] stood at 1.1 nM; in assay [2], 128 nM.

As for `CC(C)(C)C=C(C#N)C(=O)N1C[C@@H]2C[C@@H]2[C@@H]1COC(=O)N[C@@H](Cc1coc2ccccc12)B(O)O` [Example 48, ((R)-2-(benzofuran-3-yl)-1-(((((1S,2R,5R)-3-(2-cyano-4,4-dimethylpent-2-enoyl)-3-azabicyclo[3.1.0]hexan-2-yl)methoxy)carbonyl)amino)ethyl)boronic acid], the IC50 was found to be 0.6 nM in assay [1] and 115 nM in assay [2].

As for `CN(C)C/C=C/C(=O)N1CCC[C@@H]1COC(=O)N[C@@H](Cc1coc2ccccc12)B(O)O` [Example 49, ((R)-2-(benzofuran-3-yl)-1-(((((R)-1-((E)-4-(dimethylamino)but-2-enoyl)pyrrolidin-2-yl)methoxy)carbonyl)amino)ethyl)boronic acid], the IC50 in assay [1] is 1.3 nM; in assay [2], 149 nM.

For the molecule `CC(C)(C)C=C(C#N)C(=O)N1CCCC[C@@H]1COC(=O)N[C@@H](CCc1ccccc1)B(O)O` [Example 50, ((R)-1-(((((R)-1-(2-cyano-4,4-dimethylpent-2-enoyl)piperidin-2-yl)methoxy)carbonyl)amino)-3-phenylpropyl)boronic acid], the results for the half-maximal inhibitory concentration (IC50) in assay [1] and in assay [2] were 9.8 nM and more than 5000 nM, respectively.

As for `CC(C)(C=C(C#N)C(=O)N1C[C@@H]2C[C@@H]2[C@@H]1COC(=O)N[C@@H](Cc1coc2ccccc12)B(O)O)N1CCOCC1` [Example 51, ((R)-2-(benzofuran-3-yl)-1-(((((1S,2R,5R)-3-(2-cyano-4-methyl-4-morpholinopent-2-enoyl)-3-azabicyclo[3.1.0]hexan-2-yl)methoxy)carbonyl)amino)ethyl)boronic acid], the 50% inhibitory concentration (IC50) in assay [1] turned out to be 0.5 nM; in assay [2] it was 356 nM.

With `C=CC(=O)N1C[C@@H]2C[C@@H]2[C@@H]1COC(=O)N[C@@H](Cc1coc2ccccc12)B(O)O` [Example 52, ((R)-1-(((((1S,2R,5R)-3-acryloyl-3-azabicyclo[3.1.0]hexan-2-yl)methoxy)carbonyl)amino)-2-(benzofuran-3-yl)ethyl)boronic acid], the concentration for half-maximal inhibition (IC50) in assay [1] is 1.3 nM; in assay [2], 336 nM.

Consider `CC(=O)N1CCN(C(C)(C)C=C(C#N)C(=O)N2CCC[C@@H]2COC(=O)N[C@@H](Cc2coc3ccccc23)B(O)O)CC1` [Example 53, ((R)-1-(((((R)-1-(4-(4-acetylpiperazin-1-yl)-2-cyano-4-methylpent-2-enoyl)pyrrolidin-2-yl)methoxy)carbonyl)amino)-2-(benzofuran-3-yl)ethyl)boronic acid], for which the IC50 in assay [1] is 1.8 nM; in assay [2] it was 205 nM.

As for `CC(C)(C=C(C#N)C(=O)N1C[C@@H]2C[C@@H]2[C@@H]1COC(=O)N[C@@H](Cc1coc2ccccc12)B(O)O)N1CCC(F)(F)C1` [Example 54, ((R)-2-(benzofuran-3-yl)-1-(((((1S,2R,5R)-3-(2-cyano-4-(3,3-difluoropyrrolidin-1-yl)-4-methylpent-2-enoyl)-3-azabicyclo[3.1.0]hexan-2-yl)methoxy)carbonyl)amino)ethyl)boronic acid], the figures for the concentration for half-maximal inhibition (IC50) in assay [1] and in assay [2] were 1.6 nM and 192 nM, respectively.

Take `CN1CCN(C(C)(C)C=C(C#N)C(=O)N2CCC[C@@H]2COC(=O)N[C@@H](Cc2coc3ccccc23)B(O)O)CC1` [Example 55, ((R)-2-(benzofuran-3-yl)-1-(((((R)-1-(2-cyano-4-methyl-4-(4-methylpiperazin-1-yl)pent-2-enoyl)pyrrolidin-2-yl)methoxy)carbonyl)amino)ethyl)boronic acid]: the half-maximal inhibitory concentration (IC50) came out at 2.5 nM in assay [1] and 225 nM in assay [2].

For the molecule `CC(C)(C=C(C#N)C(=O)N1CC(F)(F)C[C@@H]1COC(=O)N[C@@H](Cc1coc2ccccc12)B(O)O)N1CCOCC1` [Example 56, ((R)-2-(benzofuran-3-yl)-1-(((((R)-1-(2-cyano-4-methyl-4-morpholinopent-2-enoyl)-4,4-difluoropyrrolidin-2-yl)methoxy)carbonyl)amino)ethyl)boronic acid], the results for the IC50 in assay [1] and in assay [2] were 1.7 nM and 148 nM, respectively.

For `C[C@H]1CC[C@H](COC(=O)N[C@@H](Cc2coc3ccccc23)B(O)O)N1C(=O)C(C#N)=CC(C)(C)N1CCOCC1` [Example 57, ((R)-2-(benzofuran-3-yl)-1-(((((2R,5S)-1-(2-cyano-4-methyl-4-morpholinopent-2-enoyl)-5-methylpyrrolidin-2-yl)methoxy)carbonyl)amino)ethyl)boronic acid], the concentration for half-maximal inhibition (IC50) in assay [1] worked out at 1.4 nM; in assay [2], 176 nM.

For `CC(C)(C=C(C#N)C(=O)N1CCOC[C@@H]1COC(=O)N[C@@H](Cc1coc2ccccc12)B(O)O)N1CCOCC1` [Example 58, ((R)-2-(benzofuran-3-yl)-1-(((((R)-4-(2-cyano-4-methyl-4-morpholinopent-2-enoyl)morpholin-3-yl)methoxy)carbonyl)amino)ethyl)boronic acid], the results for the IC50 in assay [1] and in assay [2] were 0.8 nM and 23 nM, respectively.

Take `CC(C)(C=C(C#N)C(=O)N1CCCC[C@@H]1COC(=O)N[C@@H](Cc1coc2ccccc12)B(O)O)N1CCN(C2COC2)CC1` [Example 60, ((R)-2-(benzofuran-3-yl)-1-(((((R)-1-(2-cyano-4-methyl-4-(4-(oxetan-3-yl)piperazin-1-yl)pent-2-enoyl)piperidin-2-yl)methoxy)carbonyl)amino)ethyl)boronic acid]: the IC50 in assay [1] was 0.9 nM; in assay [2] it was 232 nM.

As for `CC(C)(C)/C=C(\C#N)C(=O)N1CC(F)(F)C[C@@H]1COC(=O)N[C@@H](Cc1ccccc1)B(O)O` [Example 61, ((R)-1-(((((R)-1-((E)-2-cyano-4,4-dimethylpent-2-enoyl)-4,4-difluoropyrrolidin-2-yl)methoxy)carbonyl)amino)-2-phenylethyl)boronic acid], the IC50 in assay [1] was found to be 1.4 nM; in assay [2], 1490 nM.

For the molecule `CC(C)(C=C(C#N)C(=O)N1CCCC[C@@H]1COC(=O)N[C@@H](Cc1coc2ccccc12)B(O)O)N1CCCC(F)(F)C1` [Example 62, ((R)-2-(benzofuran-3-yl)-1-(((((R)-1-(2-cyano-4-(3,3-difluoropiperidin-1-yl)-4-methylpent-2-enoyl)piperidin-2-yl)methoxy)carbonyl)amino)ethyl)boronic acid], the IC50 in assay [1] stood at 1.6 nM; in assay [2] it was 205 nM.

On to `CC(C)(C=C(C#N)C(=O)N1CCCCC[C@@H]1COC(=O)N[C@@H](Cc1coc2ccccc12)B(O)O)N1CCOCC1` [Example 63, ((R)-2-(benzofuran-3-yl)-1-(((((R)-1-(2-cyano-4-methyl-4-morpholinopent-2-enoyl)-azepan-2-yl)methoxy)carbonyl)amino)ethyl)boronic acid], for which the IC50 stood at 1.4 nM in assay [1] and 230 nM in assay [2].
